# Assay results: PubChem BioAssay (NCI)
#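 Exposure lasted 48 hours, with cells grown in 96-well plates and compounds tested at five concentrations. TGI denotes the concentration required for complete inhibition of growth.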
# Experiments:
# Experiment in all cases: NCI tumour cell line growth inhibition, 48 h
# SK-MEL-28 melanoma = tested on: SK-MEL-28 melanoma
# NCI-H460 lung = tested on: NCI-H460 lung
# UACC-62 melanoma = tested on: UACC-62 melanoma
# NCI/ADR-RES ovarian = tested on: NCI/ADR-RES ovarian
# MALME-3M melanoma = tested on: MALME-3M melanoma
# HOP-62 NSCLC = tested on: HOP-62 NSCLC
# HS 578T breast = tested on: HS 578T breast
# LOX IMVI melanoma = tested on: LOX IMVI melanoma
# CAKI-1 renal = tested on: CAKI-1 renal
# SK-OV-3 ovarian = tested on: SK-OV-3 ovarian
# MDA-MB-231 breast = tested on: MDA-MB-231 breast
# SF-268 CNS = tested on: SF-268 CNS
# MDA-MB-435 = tested on: MDA-MB-435
# OVCAR-4 ovarian = tested on: OVCAR-4 ovarian
# SK-MEL-2 melanoma = tested on: SK-MEL-2 melanoma
# KM12 colon = tested on: KM12 colon
# OVCAR-8 ovarian = tested on: OVCAR-8 ovarian
# U251 CNS = tested on: U251 CNS
# HOP-92 NSCLC = tested on: HOP-92 NSCLC
# 786-0 renal = tested on: 786-0 renal
# NCI-H23 lung = tested on: NCI-H23 lung
# SNB-19 CNS = tested on: SNB-19 CNS
# T-47D breast = tested on: T-47D breast
# NCI-H226 lung = tested on: NCI-H226 lung
# SW-620 colon = tested on: SW-620 colon
# UO-31 renal = tested on: UO-31 renal
# IGROV1 ovarian = tested on: IGROV1 ovarian
# OVCAR-3 ovarian = tested on: OVCAR-3 ovarian
# EKVX NSCLC = tested on: EKVX NSCLC
# SNB-75 CNS = tested on: SNB-75 CNS
# RXF 393 renal = tested on: RXF 393 renal
# SR leukemia = tested on: SR leukemia
# PC-3 prostate = tested on: PC-3 prostate
# UACC-257 melanoma = tested on: UACC-257 melanoma
# SN12C renal = tested on: SN12C renal
# SF-539 CNS = tested on: SF-539 CNS
# TK-10 renal = tested on: TK-10 renal
# HT29 colon = tested on: HT29 colon
# DU-145 prostate = tested on: DU-145 prostate
# HCT-15 colon = tested on: HCT-15 colon
# NCI-H522 lung = tested on: NCI-H522 lung
# SF-295 CNS = tested on: SF-295 CNS
# ACHN renal = tested on: ACHN renal
# HCT-116 colon = tested on: HCT-116 colon
# K-562 leukemia = tested on: K-562 leukemia
# OVCAR-5 ovarian = tested on: OVCAR-5 ovarian
# COLO 205 colon = tested on: COLO 205 colon
# MCF7 breast = tested on: MCF7 breast
# HL-60(TB) leukemia = tested on: HL-60(TB) leukemia
# A549 NSCLC = tested on: A549 NSCLC
# M14 melanoma = tested on: M14 melanoma
# SK-MEL-5 melanoma = tested on: SK-MEL-5 melanoma
smiles,measurement,setting,value
COc1cc2c(cc1OCCCCOc1cc3nc(C)nc(Cl)c3cc1OC)N=C[C@@H]1CCCN1C2=O,TGI,SK-MEL-28 melanoma,5.54 µM
same,TGI,NCI-H460 lung,45.6 µM
same,TGI,UACC-62 melanoma,2800 nM
same,TGI,NCI/ADR-RES ovarian,6.87 µM
same,TGI,MALME-3M melanoma,3.4 µM
same,TGI,HOP-62 NSCLC,7.24 µM
same,TGI,HS 578T breast,5.63 µM
same,TGI,LOX IMVI melanoma,3.04 µM
same,TGI,CAKI-1 renal,5.82 µM
same,TGI,SK-OV-3 ovarian,> 100 µM
same,TGI,MDA-MB-231 breast,3.43 µM
same,TGI,SF-268 CNS,8.44 µM
same,TGI,MDA-MB-435,2970 nM
same,TGI,OVCAR-4 ovarian,11.1 µM
same,TGI,SK-MEL-2 melanoma,3.6 µM
same,TGI,KM12 colon,4.44 µM
same,TGI,OVCAR-8 ovarian,5.48 µM
same,TGI,U251 CNS,6.88 µM
same,TGI,HOP-92 NSCLC,5.52 µM
same,TGI,786-0 renal,12.4 µM
same,TGI,NCI-H23 lung,3.37 µM
same,TGI,SNB-19 CNS,33.1 µM
same,TGI,T-47D breast,31.8 µM
same,TGI,NCI-H226 lung,4.07 µM
same,TGI,SW-620 colon,10.1 µM
same,TGI,UO-31 renal,4.73 µM
same,TGI,IGROV1 ovarian,4.6 µM
same,TGI,OVCAR-3 ovarian,4.7 µM
same,TGI,EKVX NSCLC,19.4 µM
same,TGI,SNB-75 CNS,3.34 µM
same,TGI,RXF 393 renal,4.64 µM
same,TGI,SR leukemia,1960 nM
same,TGI,PC-3 prostate,8.91 µM
same,TGI,UACC-257 melanoma,4.04 µM
same,TGI,SN12C renal,4.8 µM
same,TGI,SF-539 CNS,4.2 µM
same,TGI,TK-10 renal,6.04 µM
same,TGI,HT29 colon,10.2 µM
same,TGI,DU-145 prostate,13.2 µM
same,TGI,HCT-15 colon,8.78 µM
same,TGI,NCI-H522 lung,2120 nM
same,TGI,SF-295 CNS,6.76 µM
same,TGI,ACHN renal,8.82 µM
same,TGI,HCT-116 colon,5.59 µM
same,TGI,K-562 leukemia,4.79 µM
same,TGI,OVCAR-5 ovarian,5.3 µM
same,TGI,COLO 205 colon,45.4 µM
same,TGI,MCF7 breast,> 100 µM
same,TGI,HL-60(TB) leukemia,7.43 µM
same,TGI,A549 NSCLC,7.56 µM
same,TGI,M14 melanoma,3.5 µM
same,TGI,SK-MEL-5 melanoma,3.4 µM
